Where two headings read alike, the source gives them in different places.
System: hairy heel wart lesions on the cows
[1] = Day 0, prior to first treatment
[2] = Grading Period 1 (Day 0), one day prior to first treatment

O=S(=O)([O-])[O-].[Cu+2] [CuSO4, copper sulfate]
Lesion Appearance Score Distribution: number of cows with Grade Score 4 (Dead lesion) [1]: 1 | Lesion Pain Score Distribution: number of cows with Grade Score 1 (Minor pain) [1]: 10 | Lesion Size Score Distribution: number of cows with Grade Score 1 (Dime Size) [1]: 6 | Lesion Size Score Distribution: number of cows with Grade Score 2 (Quarter Size) [1]: 5 | Locomotion Score Distribution: number of cows with Grade Score 1 (Stands and walks normal) [1]: 5 | Lesion Appearance Score Distribution: number of cows with Grade Score 4 (Dead lesion) (Day 5): 5 | Lesion Pain Score Distribution: number of cows with Grade Score 1 (Minor pain) (Day 5): 6 | Lesion Size Score Distribution: number of cows with Grade Score 1 (Dime Size) (Day 5): 4 | Lesion Size Score Distribution: number of cows with Grade Score 2 (Quarter Size) (Day 5): 4 | Locomotion Score Distribution: number of cows with Grade Score 1 (Stands and walks normal) (Day 5): 3 | Lesion Appearance Score Distribution: number of cows with Grade Score 4 (Dead lesion) (Day 10): 6 | Lesion Pain Score Distribution: number of cows with Grade Score 1 (Minor pain) (Day 10): 9 | Lesion Size Score Distribution: number of cows with Grade Score 1 (Dime Size) (Day 10): 10 | Lesion Size Score Distribution: number of cows with Grade Score 2 (Quarter Size) (Day 10): 1 | Locomotion Score Distribution: number of cows with Grade Score 1 (Stands and walks normal) (Day 10): 3 | Lesion Appearance Score Distribution: number of cows with Grade Score 4 (Dead lesion) (Day 14): 5 | Lesion Pain Score Distribution: number of cows with Grade Score 1 (Minor pain) (Day 14): 5 | Lesion Size Score Distribution: number of cows with Grade Score 1 (Dime Size) (Day 14): 4 | Lesion Size Score Distribution: number of cows with Grade Score 2 (Quarter Size) (Day 14): 6 | Locomotion Score Distribution: number of cows with Grade Score 1 (Stands and walks normal) (Day 14): 8 | Lesion Appearance Score Distribution: number of cows with Grade Score 4 (Dead lesion) (Day 19): 3 | Lesion Pain Score Distribution: number of cows with Grade Score 1 (Minor pain) (Day 19): 5 | Lesion Size Score Distribution: number of cows with Grade Score 1 (Dime Size) (Day 19): 8 | Lesion Size Score Distribution: number of cows with Grade Score 2 (Quarter Size) (Day 19): 3 | Locomotion Score Distribution: number of cows with Grade Score 1 (Stands and walks normal) (Day 19): 8 | Average lesion color score (scale 0 to 5) [2]: 1.64 | Average lesion pain score (scale 0 to 2) [2]: 1.09 | Average locomotion score (scale 1-5) [2]: 1.82 | Average lesion color score (scale 0 to 5) (Grading Period 2 (Day 5)): 2.20 | Average lesion pain score (scale 0 to 2) (Grading Period 2 (Day 5)): 0.60 | Average lesion size score (scale 0 to 3) (Grading Period 2 (Day 5)): 1.80 | Average locomotion score (scale 1-5) (Grading Period 2 (Day 5)): 1.90 | Average lesion color score (scale 0 to 5) (Grading Period 3 (Day 10)): 2.45 | Average lesion pain score (scale 0 to 2) (Grading Period 3 (Day 10)): 1.00 | Average lesion size score (scale 0 to 3) (Grading Period 3 (Day 10)): 1.09 | Average locomotion score (scale 1-5) (Grading Period 3 (Day 10)): 1.82 | Average lesion color score (scale 0 to 5) (Grading Period 4 (Day 14)): 3.10 | Average lesion pain score (scale 0 to 2) (Grading Period 4 (Day 14)): 0.50 | Average lesion size score (scale 0 to 3) (Grading Period 4 (Day 14)): 1.60 | Average locomotion score (scale 1-5) (Grading Period 4 (Day 14)): 1.20 | Average lesion pain score (scale 0 to 2) (Grading Period 5 (Day 19)): 0.45 | Average lesion size score (scale 0 to 3) (Grading Period 5 (Day 19)): 1.27 | Average locomotion score (scale 1-5) (Grading Period 5 (Day 19)): 1.55

From patent US8703104B2, “Use of metal astringents for the treatment of hairy heel warts” (Ecolab USA Inc, priority 2007, dated 2014)
